Read-outs that look alike come from different tables or passages of the source.
How the values were obtained:
[1] = cited from earlier work
[2] = 91-day once-daily latanoprost ointment, plasma PK after last dose in minipigs; type: in vivo; settings: both sexes, topical or ocular, 0.5 % w/w; minipig, topical (percutaneous) latanoprost; first-order fit of 24, 48, 72 h plasma values; read-out: terminal elimination half-life
Procedure: A pharmacokinetic (PK) experiment was conducted on male and female minipigs (n=6 per sex). Ointment comprising latanoprost 0.5% w/w in a vehicle comprising petroleum jelly and isopropyl myristate was applied once daily for 91 days to skin over 10% of body surface area. After the last topical application, plasma PK was assessed by sampling all animals through 24 hours, and in 2 animals per sex over for an additional 48 hours.
(See Sjoquist B et al., The pharmacokinetics of a new antiglaucoma drug, latanoprost, in the rabbit, Drug Metabol […] 1998; 26:745-754; and Sjoquist B and Stjernschantz J, Ocular and systemic pharmacokinetics of latanoprost in humans, Surv Ophthalmol 2002; 47:S6-S12).

[3] = humans; cited from earlier work
[4] = tested on: lower lid steatoblepharon; experiment: Randomized, double-masked, placebo-controlled trial of latanoprost ointment on lower eyelids (steatoblepharon); type: in vivo, human; settings: adults, lower eyelids once nightly, washed after 8-10 hours, 10 weeks
Procedure: A randomized, double-masked, placebo-controlled trial of latanoprost ointment applied to lower eyelids was conducted with adult men and women with lower lid steatoblepharon, i.e., eye bags. Participants received a kit comprising a tube of latanoprost ointment and instructions to apply the topical composition to the lower eyelids once nightly at bedtime. Participants were instructed to wash the lower eyelids 8-10 hours after ointment application, so as to remove the ointment or residue thereof. Treatment continued for 10 weeks.

excess submental fat = experiment: Randomized, double-blind, placebo-controlled trial of topical latanoprost on the submental area; type: in vivo, human; settings: adults, submental skin 50 cm^2, applied at bedtime, washed after 8-10 hours, 42 days
Procedure: A randomized, double-blind, placebo-controlled trial of topical latanoprost applied to the submental area was conducted with adult men and women with excess submental fat. In one cohort, participants were randomized to receive latanoprost in an ethanol-based composition, or a matching placebo composition. In another cohort, participants were randomized to receive latanoprost in a petroleum jelly-based composition, or a matching placebo composition. The composition was applied at bedtime to a controlled 50 cm^2 area of submental skin. Participants were instructed to wash the 50 cm^2 area after 8-10 hours, so as to remove the composition. Treatment continued for 42 days.

subcutaneous fat = experiment: 42-day once-daily topical latanoprost trial in minipigs: reduction of subcutaneous fat (microscopy, ImageJ); type: in vivo; settings: minipig, 42 days
Procedure: A randomized, placebo-controlled trial of topical latanoprost was conducted on male and female minipigs. Animals were randomized to no treatment, placebo (vehicle only), latanoprost 0.16%, or latanoprost 0.8% in an emulsion consisting essentially of water, poloxamer, lecithin, and isopropyl palmitate. The treatment was applied once daily to a 400 cm^2 area on the dorsum, with a semi-occlusive dressing. Treatment continued for 42 days.
Animals received a full panel of local and systemic safety assessments over the course of the study. Plasma toxicokinetics (TK) were assessed at various timepoints. After 42 days of treatment, animals were sacrificed. Samples of skin and subcutaneous fat were dissected from the treatment area in a controlled fashion and submitted for microscopic examination by a veterinary pathologist who was not informed of the compound tested or its therapeutic purpose.
Reduction of subcutaneous fat thickness was quantified using ImageJ software. In the high-dose group the mean reduction was 2.2 cubic centimeters of fat per 100 cm^2 of treated skin.

half-life [2] [min]	Structure (SMILES)	half-life ([1]; after intravenous administration) [min]	half-life ([1]; after ocular administration) [min]	half-life ([1]; latanoprost administered intravenously or ophthalmically) [min]	half-life in plasma [3]	tolerability [4]	tolerability (excess submental fat)	subcutaneous fat on microscopic examination (subcutaneous fat; 0.16% and 0.8% once daily)	mean reduction of subcutaneous fat (subcutaneous fat; high-dose group)
1080 to 1440	O=C(O)CCC/C=C\C[C@@H]1[C@@H](CC[C@@H](O)CCc2ccccc2)[C@H](O)C[C@@H]1O [latanoprost free acid]	9 to 17	17 to 85	9 to 85	–	–	–	–	–
–	CC(C)OC(=O)CCC/C=C\C[C@@H]1[C@@H](CC[C@@H](O)CCc2ccccc2)[C@H](O)C[C@@H]1O [latanoprost]	–	–	–	about 17 minutes	well tolerated	well tolerated	Dose-dependent depletion of subcutaneous fat	2.2 cubic centimeters of fat per 100 cm^2 of treated skin

— patent US10188661B2, “Topical dosage regimen” (Topokine Therapeutics, Inc., priority 2014, dated 2019)
